Entries after “also recorded” stand apart in the source; their conditions may differ.
Key:
[1] = system: luciferase/TSHR+/+ K562 or luciferase/TSHR+/+ FTC133 cells; conditions: presence or absence of MEK inhibitor (10 nM trametinib, FTC133, 48 hours in FIG. 10A)
Procedure: Cytotoxicity assays: Cytotoxicity assays were performed as described elsewhere (see, e.g., Sterner, R. M. et al., Blood 133, 697-709 (2019)). In summation, luciferase/TSHR+/+K562 or luciferase/TSHR+/+FTC133 cells was used as a target cell. TSHR-CAR T cells or batch-matched control donor untransduced (non-transduced) T cells (UTD) were co-cultured with target cells at serial effector: target (E:T) ratios in T cell media. Cytotoxic efficiency was calculated by bioluminescence imaging on the Xenogen IVIS-200 Spectrum (PerkinElmer, Hopkinton, MA, USA) or Promega GlowMax Explorer (Promega Corporation, Fitchburg, WI, USA) at 24 hours, 48 hours, and 72 hours, as indicated in the specific experiment.
Cytotoxicity assays were performed as described elsewhere (Sterner, R. M. et al., Blood 133, 697-709 (2019)). Luciferase*TSHR*K562 or FTC133 cells were used as target cells. UTD or TSHR-CART cells were co-cultured with target cells at various effector: target (E:T) ratios in T cell medium. Cytotoxic efficiency was calculated by bioluminescence imaging on the Promega GlowMax Explorer (Promega Corporation, Fitchburg, WI, USA) at indicated time points.

[2] = system: TSHR expression in ATC PDX tumors (THJ-560 / MC-Th-560); assay: IHC of TSHR and pERK in ATC PDX tumors treated with MEK/BRAF inhibitors; assay type: in vivo, NSG mice
Procedure: Immunostaining was performed on paraffin-embedded tissue. Thyroid tissue microarray (TMA) was made from archival samples. Paraffin blocks were cut into 5 μm thick sections. Slides were deparaffinized, and were rehydrated with decreasing concentrations of ethanol and finally in water. Antigen retrieval was performed using Antigen Retrieval Solution (pH 6 or pH 9) (Dako, Glostrup, Denmark), for at least 15 minutes in an autoclave, and cooling for 30 minutes at room temperature. Washing slides with 3% hydrogen peroxide (Fisher Scientific, Waltham, MA, USA) for 10 minutes blocked the activity of endogenous peroxidases. Primary anti-human antibodies were used for 60 minutes at room temperature and at the following dilutions: TSHR antibody at 1:500 (abcam, ab218108, Cambridge, UK) and NIS antibody at 1:200 (ProteinTech, 24324-1-AP, Rosemont, IL, USA), CD14 antibody at 1:100 (abcam, ab183322, Cambridge, UK), CD80 at 1:1000 (abcam, ab134120, Cambridge, UK), CD206 at 1:5000 (abcam, ab64693, Cambridge, UK), Ki67 at 1:1000 (abcam, ab15580, Cambridge, UK), cleaved caspase 3 (Asp175) CC3 at 1:100 (Cell Signaling 9661, Danvers, MA, USA), and CD31 at (Santa Cruz Biotechnology, sc-1506, Dallas, TX, USA).
In this model, 5 mm^3 MC-Th-560 ATC PDX tissue was surgically implanted into the right lateral flank of NSG mice and grown to ˜100 mm^3. Mice then received daily treatment with either vehicle control or trametinib (MEK inhibitor) at the indicated doses.
The following was performed to assess the kinetics of TSHR expression after MEK/BRAF inhibition. Mice were implanted with 5 mm^3 Th-560 ATC PDX tumors. When tumors reached ˜100 mm^3, mice were treated daily with either vehicle control or with 1.5 mg/kg R05126766 plus 1 mg/kg dabrafenib.
Immunostaining was performed on paraffin-embedded tissue. Thyroid tissue microarray (TMA) was made from archival samples. Paraffin blocks were cut into 5 μm thick sections. […] The primary antibody was detected using the Envision Labeled Kit (Dako, Glostrup, Denmark) according to the manufacturer's protocol. […]

ATC THJ-560 PDX tumors = assay: Tumor volume of ATC PDX tumors treated with MEK/BRAF inhibitors; assay type: in vivo, NSG mice
Procedure: FIGS. 9A-9J. Treatment of thyroid tumors with MAPK inhibitors results in upregulation of TSHR. […] NSG mice treated with different daily doses of trametinib for 8 days and tumor volume regression was measured. FIG. 9B) TSHR expression was restored with higher dose of trametinib, whereas pERK expression was reduced. Right. […] Left. Association between H-score of TSHR and pERK in correlation with trametinib dose-escalation. […] Assessment of tumor volume on NSG mice treated with different doses of R05126766. […] Right. ICH tumor sections showing TSRH and pERK expression. Left. H-score of TSRH and pERK in association with increasing doses of R05126766. FIG. 9E) Experimental schema of an ATC PDX model treated with MAPK inhibitors (MEKi and BRAFi). […] Treatment was begun when tumors were ˜75-100 mm^3. […] Upper panel. H-score of TSHR in ATC-derived treated tumors (One-way ANOVA; **p<0.01; n=4 mice; error bars, SEM). Lower panel. TSHR expression assessment via IHC. […] Tumor volume assessment over a period of 7 days of MAPK inhibitors dosage. FIG. 9H) Experimental schema of an ATC PDX model treated with MEK inhibitors. NSG mice were implanted with ATC PDX tumors and treatment with MEK inhibitors (for 14 days) R05126766 and trametinib started (daily dosage) when tumors reached ˜75-100 mm^3. […] Upper panel. […]

[3] = one week of daily treatment at escalating doses, MC-Th-560 ATC PDX, vs placebo

Row | SMILES | effect of MEK inhibitor on TSHR CART cell cytotoxicity [1] | TSHR protein expression by IHC ([2]; 14 days daily oral, 1.5 mg/kg R05126766 or 1 mg/kg trametinib, vs vehicle/placebo) | TSHR expression by IHC, dose escalation [2, 3] | pERK expression by IHC, dose escalation [2, 3] | anti-tumor activity (tumor volume by caliper) (ATC THJ-560 PDX tumors; 14 days daily, placebo, R05126766 or trametinib) | tumor volume, dose escalation (ATC THJ-560 PDX tumors; different daily doses (trametinib: 8 days))
1 | CC(=O)Nc1cccc(-n2c(=O)n(C3CC3)c(=O)c3c(Nc4ccc(I)cc4F)n(C)c(=O)c(C)c32)c1 [trametinib] | did not impair |  |  |  |  | 
2 | CNS(=O)(=O)Nc1nccc(Cc2c(C)c3ccc(Oc4ncccn4)cc3oc2=O)c1F [Clone R05126766] |  | elevated significantly; also recorded: increased TSHR expression | increase in TSHR expression; also recorded: increased expression of TSRH | reduction of pERK; also recorded: lower expression of pERK | better anti-tumor activity in comparison to trametinib | dose-depended tumor reduction; also recorded: proportional to thyroid tumor volume reduction

Source: US20250325586A1, “TREATING CANCER” (priority 2022, published 2025)
